Measured values reported in patent US9695154B2, “Heteroaryl inhibitors of sumo activating enzyme” (MILLENNIUM PHARMACEUTICALS, INC., priority 2013, dated 2017).

Target: T1, recombinant human SAE enzyme (Homo sapiens, UniProt Q9UBT2)
T1 sequence (Q9UBT2 1-640): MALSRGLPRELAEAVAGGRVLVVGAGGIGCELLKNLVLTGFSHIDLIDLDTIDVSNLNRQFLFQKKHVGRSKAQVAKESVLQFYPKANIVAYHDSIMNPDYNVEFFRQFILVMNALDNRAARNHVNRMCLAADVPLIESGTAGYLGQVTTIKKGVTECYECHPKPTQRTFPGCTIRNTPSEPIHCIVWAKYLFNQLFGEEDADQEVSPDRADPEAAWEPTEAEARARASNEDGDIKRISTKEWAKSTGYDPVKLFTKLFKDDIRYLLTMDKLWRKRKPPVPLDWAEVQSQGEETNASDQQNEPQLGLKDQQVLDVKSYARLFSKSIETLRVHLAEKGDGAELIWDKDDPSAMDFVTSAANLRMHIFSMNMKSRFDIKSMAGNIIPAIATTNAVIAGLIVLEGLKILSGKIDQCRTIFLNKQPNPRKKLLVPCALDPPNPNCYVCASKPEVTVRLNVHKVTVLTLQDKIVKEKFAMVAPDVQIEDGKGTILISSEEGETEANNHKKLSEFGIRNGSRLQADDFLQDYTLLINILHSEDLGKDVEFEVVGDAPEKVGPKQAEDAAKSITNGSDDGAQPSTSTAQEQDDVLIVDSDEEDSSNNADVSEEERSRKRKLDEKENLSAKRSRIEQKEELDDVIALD
T1 sequence (Q9UBE0 1-346 partner): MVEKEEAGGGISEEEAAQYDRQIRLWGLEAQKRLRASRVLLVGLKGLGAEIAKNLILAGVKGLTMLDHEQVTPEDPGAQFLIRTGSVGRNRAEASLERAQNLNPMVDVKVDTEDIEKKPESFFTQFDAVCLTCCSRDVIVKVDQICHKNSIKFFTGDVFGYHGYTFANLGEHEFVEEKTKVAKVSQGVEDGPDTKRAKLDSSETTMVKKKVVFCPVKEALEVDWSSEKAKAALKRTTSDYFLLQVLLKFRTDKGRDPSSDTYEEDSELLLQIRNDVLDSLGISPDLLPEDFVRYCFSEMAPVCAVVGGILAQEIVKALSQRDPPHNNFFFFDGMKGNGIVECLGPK
Assay: SAE HTRF Enzyme Assay
Assay type: biochemical
Settings: for IC50: class symbols A-C; for inhibition at 0.111 µM: read-out: Percent Inhibition
Method in brief: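 Recombinant human SAE (0.11 nM) transferred Sumo-Flag (0.125 μM) to Ubc9-GST (0.01 μM) with 0.5 μM ATP in HEPES pH 7.5, MgCl2, GSH, BSA; 105 min at 24° C. EDTA stop, Eu-cryptate anti-Flag and XL-APC anti-GST added, 2 h, then HTRF read. Values given as % inhibition at one concentration or IC50.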

[1] = compound concentration 0.111 μM

Row | Structure (SMILES) | IC50 | Percent Inhibition (compound concentration 0.111 μM, 0.111 µM) | inhibition at 0.111 µM [1]
1 | CC(c1cccc(Cl)c1)n1ccc(C(=O)c2cncnc2N[C@@H]2C[C@H](COS(N)(=O)=O)[C@@H](O)C2)n1 (single isomer, unassigned) [Compound I-133, [(1R,2S,4R)-4-{[5-({1-[(1S)-1-(3-chlorophenyl)ethyl]-1H-pyrazol-3-yl}carbonyl)pyrimidin-4-yl]amino}-2-hydroxycyclopentyl]methyl sulfamate or [(1R,2S,4R)-4-{[5-({1-[(1R)-1-(3-chlorophenyl)ethyl]-1H-pyrazol-3-yl}carbonyl)pyrimidin-4-yl]amino}-2-hydroxycyclopentyl]methyl sulfamate] | 10 to 100 nM | 61% | 
2 | NS(=O)(=O)OC[C@H]1C[C@@H](Nc2ncncc2C(=O)c2ccn(Cc3cccc(Br)c3F)n2)C[C@@H]1O [Compound I-282, {(1R,2S,4R)-4-[(5-{[1-(3-bromo-2-fluorobenzyl)-1H-pyrazol-3-yl]carbonyl}pyrimidin-4-yl)amino]-2-hydroxycyclopentyl}methyl sulfamate] | < 10 nM |  | 100%
3 | NS(=O)(=O)OC[C@H]1C[C@@H](Nc2ncncc2C(=O)c2ccn(Cc3cccc(Br)c3)n2)[C@H](O)[C@@H]1O [Compound I-240, {(1R,2R,3S,4R)-4-[(5-{[1-(3-bromobenzyl)-1H-pyrazol-3-yl]carbonyl}pyrimidin-4-yl)amino]-2,3-dihydroxycyclopentyl}methyl sulfamate] | < 10 nM |  | 100%
4 | NS(=O)(=O)OC[C@H]1C[C@@H](Nc2ncncc2C(=O)c2ccn(CC3CC3c3ccccc3)c2)C[C@@H]1O (mixture of isomers) [Compound I-339, [(1R,2S,4R)-2-hydroxy-4-{[5-({1-[(1S,2S)-(2-phenylcyclopropyl)methyl]-1H-pyrrol-3-yl}carbonyl)pyrimidin-4-yl]amino}cyclopentyl]methyl sulfamate and [(1R,2S,4R)-2-hydroxy-4-{[5-({1-[(1R,2R)-(2-phenylcyclopropyl)methyl]-1H-pyrrol-3-yl}carbonyl)pyrimidin-4-yl]amino}cyclopentyl]methyl sulfamate] | < 10 nM |  | 93%
5 | NS(=O)(=O)OC[C@H]1C[C@@H](Nc2ncncc2C(=O)c2ccn(Cc3sccc3Cl)n2)C[C@@H]1O [Compound I-232, [(1R,2S,4R)-4-{[5-({1-[(3-chloro-2-thienyl)methyl]-1H-pyrazol-3-yl}carbonyl)pyrimidin-4-yl]amino}-2-hydroxycyclopentyl]methyl sulfamate] | < 10 nM |  | 97%
6 | NS(=O)(=O)OC[C@H]1C[C@@H](Nc2ncncc2C(=O)c2ccn(Cc3cncc(Br)c3)c2)C[C@@H]1O [Compound I-299, [(1R,2S,4R)-4-{[5-({1-[(5-Bromopyridin-3-yl)methyl]-1H-pyrrol-3-yl}carbonyl)pyrimidin-4-yl]amino}-2-hydroxycyclopentyl]methyl sulfamate] | < 10 nM |  | 99%
7 | CC1CC1Cn1ccc(C(=O)c2cncnc2N[C@@H]2C[C@H](COS(N)(=O)=O)[C@@H](O)C2)n1 (stereo partly drawn) [Compound I-55, [(1R,2S,4R)-hydroxy-4-{[5-({1-[((1S,2S)-2-methylcyclopropyl)methyl]-1H-pyrazol-3-yl}carbonyl)pyrimidin-4-yl]amino}cyclopentyl]methyl sulfamate and [(1R,2S,4R)-2-hydroxy-4-{[5-({1-[((1R,2R)-2-methylcyclopropyl)methyl]-1H-pyrazol-3-yl}carbonyl)pyrimidin-4-yl]amino}cyclopentyl]methyl sulfamate] | 10 to 100 nM |  | 58%
8 | NS(=O)(=O)OC[C@H]1C[C@@H](Nc2ncncc2C(=O)c2ccn(Cc3ccc(Cl)c(Cl)c3)c2)[C@@H](F)[C@@H]1O [Compound I-331, {(1R,2R,3R,4R)-4-[(5-{[1-(3,4-dichlorobenzyl)-1H-pyrrol-3-yl]carbonyl}pyrimidin-4-yl)amino]-3-fluoro-2-hydroxycyclopentyl}methyl sulfamate] | < 10 nM |  | 99%
9 | NS(=O)(=O)OC[C@H]1C[C@@H](Nc2ncncc2C(=O)c2ccn(Cc3ccc(F)c(C(F)(F)F)c3)c2)C[C@@H]1O [Compound I-21, [(1R,2S,4R)-4-{[5-({1-[4-fluoro-3-(trifluoromethyl)benzyl]-1H-pyrrol-3-yl}carbonyl)pyrimidin-4-yl]amino}-2-hydroxycyclopentyl]methyl sulfamate] | < 10 nM |  | 99%
10 | Cc1cc(C(=O)c2cncnc2N[C@@H]2C[C@H](COS(N)(=O)=O)[C@@H](O)[C@@H]2F)cn1Cc1cccc(Br)c1 [Compound I-71, {(1R,2R,3R,4R)-4-[(5-{[1-(3-bromobenzyl)-5-methyl-1H-pyrrol-3-yl]carbonyl}pyrimidin-4-yl)amino]-3-fluoro-2-hydroxycyclopentyl}methyl sulfamate] | < 10 nM |  | 100%
11 | NS(=O)(=O)OC[C@H]1C[C@@H](Nc2ncncc2C(=O)c2ccn(Cc3ccc(F)cc3)n2)C[C@@H]1O [Compound I-161, {(1R,2S,4R)-4-[(5-{[1-(4-fluorobenzyl)-1H-pyrazol-3-yl]carbonyl}pyrimidin-4-yl)amino]-2-hydroxycyclopentyl}methyl sulfamate] | < 10 nM |  | 92%
12 | NS(=O)(=O)OC[C@H]1C[C@@H](Nc2ncncc2C(=O)c2ccn(Cc3ccc(F)c(C(F)(F)F)c3)n2)[C@H](O)[C@@H]1O [Compound I-343, [(1R,2R,3S,4R)-4-{[5-({1-[4-fluoro-3-(trifluoromethyl)benzyl]-1H-pyrazol-3-yl}carbonyl)pyrimidin-4-yl]amino}-2,3-dihydroxycyclopentyl]methyl sulfamate] | < 10 nM |  | 97%
13 | NS(=O)(=O)OC[C@H]1C[C@@H](Nc2ncncc2C(=O)c2ccn(Cc3cc(C(F)(F)F)co3)c2)[C@@H](F)[C@@H]1O [Compound I-114, [(1R,2R,3R,4R)-3-fluoro-2-hydroxy-4-({5-[(1-{[4-(trifluoromethyl)-2-furyl]methyl}-1H-pyrrol-3-yl)carbonyl]pyrimidin-4-yl}amino)cyclopentyl]methyl sulfamate] | < 10 nM |  | 98%
14 | NS(=O)(=O)OC[C@H]1C[C@@H](Nc2ncncc2C(=O)c2ccn(Cc3cc(F)cc(C(F)(F)F)c3)c2)C[C@@H]1O [Compound I-213, [(1R,2S,4R)-4-{[5-({1-[3-fluoro-5-(trifluoromethyl)benzyl]-1H-pyrrol-3-yl}carbonyl)pyrimidin-4-yl]amino}-2-hydroxycyclopentyl]methyl sulfamate] | < 10 nM |  | 97%
15 | NS(=O)(=O)OC[C@H]1C[C@@H](Nc2ncncc2C(=O)c2ccn(CC(=O)c3cccc(Cl)c3)n2)[C@H](O)[C@@H]1O [Compound I-283, [(1R,2R,3S,4R)-4-{[5-({1-[2-(3-chlorophenyl)-2-oxoethyl]-1H-pyrazol-3-yl}carbonyl)pyrimidin-4-yl]amino}-2,3-dihydroxyoyclopentyl]methyl sulfamate] | < 10 nM |  | 97%
16 | NS(=O)(=O)OC[C@H]1C[C@@H](Nc2ncncc2C(=O)c2ccn(Cc3ccccc3)n2)[C@H](O)[C@@H]1O [Compound I-142, [(1R,2R,3S,4R)-4-({5-[(1-Benzyl-1H-pyrazol-3-yl)carbonyl]pyrimidin-4-yl}amino)-2,3-dihydroxycyclopentyl]methyl sulfamate] | < 10 nM |  | 99%
17 | NS(=O)(=O)NC[C@H]1C[C@@H](Nc2ncncc2C(=O)c2ccn(Cc3cccc(Cl)c3)n2)[C@H](O)[C@@H]1O [Compound I-136, N-({(1R,2R,3S,4R)-4-[(5-{[1-(3-Chlorobenzyl)-1H-pyrazol-3-yl]carbonyl}pyrimidin-4-yl)amino]-2,3-dihydroxycyclopentyl}methyl)sulfuric diamide] | 10 to 100 nM |  | 88%
18 | NS(=O)(=O)OC[C@H]1C[C@@H](Nc2ncncc2C(=O)c2ccn(Cc3cc(C(F)(F)F)ccc3C(F)(F)F)n2)[C@H](O)[C@@H]1O [Compound I-267, [(1R,2R,3S,4R)-4-{[5-({1-[2,5-bis(trifluoromethyl)benzyl]-1H-pyrazol-3-yl}carbonyl)pyrimidin-4-yl]amino}-2,3-dihydroxycyclopentyl]methyl sulfamate] | < 10 nM |  | 97%
